SMILES | Glass transition temperature of the amorphous form (DSC) | Tg of the amorphous form relative to normal storage temperature (normal storage temperature of 20° C. to 25° C.)
CCN(CC)CC#CCOC(=O)C(O)(c1ccccc1)C1CCCCC1 (centres unmarked) [oxybutynin base, oxybutynin] | about −20 °C | 
CN1[C@@H]2C[C@@H](OC(=O)[C@H](CO)c3ccccc3)C[C@H]1[C@@H]1O[C@@H]12 [scopolamine] |  | lower than the normal storage temperature

From patent publication US20080226698A1 (priority 2007, published 2008)
